Laboratory results taken from ChEMBL document CHEMBL1159086, “Design, synthesis and SAR analysis of novel selective sigma1 ligands (Part 2)” (Bioorg Med Chem, 2010).

How the values were obtained:
[1] = target: Sigma non-opioid intracellular receptor 1 (Rattus norvegicus, UniProt Q9R0C9); test: Displacement of [3H](+)-pentazocine from sigma 1 opioid receptor in rat liver homogenate; assay type: tissue-based
[2] = Selectivity for rat liver sigma 1 opioid receptor over rat liver sigma 2 opioid receptor
[3] = Displacement of [3H]ditolylguanidine from sigma 2 opioid receptor in rat liver homogenate; assay type: tissue-based
[4] = target: Delta-type opioid receptor (Rattus norvegicus) (UniProt P33533); test: Displacement of [3H]DPDPE from delta opioid receptor in rat brain homogenate at 1 uM; assay type: tissue-based
Sequence of Delta-type opioid receptor (Rattus norvegicus) (P33533 whole entry): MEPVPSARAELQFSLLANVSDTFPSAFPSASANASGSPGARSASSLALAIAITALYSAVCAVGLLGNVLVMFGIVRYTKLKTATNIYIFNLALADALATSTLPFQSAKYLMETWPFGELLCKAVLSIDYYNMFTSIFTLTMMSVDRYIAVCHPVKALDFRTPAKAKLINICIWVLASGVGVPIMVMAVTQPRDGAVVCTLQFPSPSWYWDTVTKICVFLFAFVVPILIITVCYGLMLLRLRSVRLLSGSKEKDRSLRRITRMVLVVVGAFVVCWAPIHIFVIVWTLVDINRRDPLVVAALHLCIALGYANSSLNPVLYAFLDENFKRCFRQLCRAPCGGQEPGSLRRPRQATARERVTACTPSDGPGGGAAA

[5] = target: Mu-type opioid receptor (Cavia porcellus, UniProt P97266); test: Displacement of [3H]DAMGO from mu-type opioid receptor in guinea pig brain homogenate; assay type: tissue-based
Sequence of Mu-type opioid receptor (P97266 whole entry): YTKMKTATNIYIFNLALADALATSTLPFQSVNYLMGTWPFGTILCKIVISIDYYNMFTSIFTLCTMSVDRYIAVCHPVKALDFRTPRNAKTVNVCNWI

[6] = target: Kappa-type opioid receptor (Cavia porcellus) (UniProt P41144); test: Displacement of [3H]-U-69593 from kappa-type opioid receptor in guinea pig brain homogenate at 1 uM; assay type: tissue-based
Sequence of Kappa-type opioid receptor (Cavia porcellus) (P41144 whole entry): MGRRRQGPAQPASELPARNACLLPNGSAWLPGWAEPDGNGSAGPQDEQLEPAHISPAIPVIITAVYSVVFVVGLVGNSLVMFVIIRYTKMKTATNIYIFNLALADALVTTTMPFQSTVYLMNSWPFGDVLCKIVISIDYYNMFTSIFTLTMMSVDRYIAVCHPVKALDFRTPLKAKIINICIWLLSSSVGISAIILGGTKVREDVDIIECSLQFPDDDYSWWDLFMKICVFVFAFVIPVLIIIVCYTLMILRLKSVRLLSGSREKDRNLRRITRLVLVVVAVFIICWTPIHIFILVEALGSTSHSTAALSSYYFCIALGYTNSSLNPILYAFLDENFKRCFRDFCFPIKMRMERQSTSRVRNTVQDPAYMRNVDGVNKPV

[7] = target: Mu-type opioid receptor (Cavia porcellus) (UniProt P97266); test: Displacement of [3H]DAMGO from mu-type opioid receptor in guinea pig brain homogenate at 1 uM; assay type: tissue-based
Sequence of Mu-type opioid receptor (Cavia porcellus) (P97266 whole entry): as the sequence (P97266 whole entry) above

[8] = target: Delta-type opioid receptor (Rattus norvegicus, UniProt P33533); test: Displacement of [3H]DPDPE from delta opioid receptor in rat brain homogenate; assay type: tissue-based
Sequence of Delta-type opioid receptor (P33533 whole entry): as the sequence (P33533 whole entry) above

[9] = target: Kappa-type opioid receptor (Cavia porcellus, UniProt P41144); test: Displacement of [3H]-U-69593 from kappa-type opioid receptor in guinea pig brain homogenate; assay type: tissue-based
Sequence of Kappa-type opioid receptor (P41144 whole entry): as the sequence (P41144 whole entry) above

Sequence of Sigma non-opioid intracellular receptor 1 (Q9R0C9 whole entry): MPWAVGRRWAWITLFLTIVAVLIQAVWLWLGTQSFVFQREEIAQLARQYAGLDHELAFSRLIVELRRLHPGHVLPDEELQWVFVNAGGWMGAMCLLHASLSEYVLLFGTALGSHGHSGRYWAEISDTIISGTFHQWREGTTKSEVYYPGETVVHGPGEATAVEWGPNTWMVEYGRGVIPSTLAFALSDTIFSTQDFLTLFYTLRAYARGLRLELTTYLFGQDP

Row | Compound | Ki [1] [nM] | selectivity ratio [2] | Ki [3] [nM] | inhibition [4] [%] | Ki [5] [nM] | inhibition [6] [%] | inhibition [7] [%] | Ki [8] [nM] | Ki [9] [nM]
1 | COc1ccc2cc(/C(C)=C/CN(C)C)ccc2c1 | 27.3 | 26 | 707 | – | – | – | – | – | –
2 | C/C(=C\CN(C)Cc1ccccc1)c1ccc(-c2ccccc2)cc1 | 4.17 | 74 | 309 | – | – | – | – | – | –
3 | COc1ccc2cc(/C(C)=C/CN(C)Cc3ccccc3)ccc2c1 | 13.7 | 41 | 568 | – | – | – | – | – | –
4 | COc1ccc2cc(/C(C)=C/CN3CCCCC3)ccc2c1 | 4.41 | 31 | 136 | – | – | – | – | – | –
5 | COc1ccc2cc(C(C)(O)CCN3CCCCC3)ccc2c1 (stereo not drawn) | 10.4 | 15 | 154 | – | – | – | – | – | –
6 | COc1ccc2cc(C(C)CCN(C)C)ccc2c1 (racemic) | 14.4 | 108 | 1550 | – | – | – | – | – | –
7 | CC(CCN(C)Cc1ccccc1)c1ccc(-c2ccccc2)cc1 (racemic) | 3.59 | 60 | 214 | 0 | 248 | 15 | – | – | –
8 | COc1ccc2cc(C(C)(O)CCN(C)Cc3ccccc3)ccc2c1 (racemic) | 6.04 | 156 | 940 | – | – | 30 | 32 | 41 | –
9 | CN(CCC(C)(O)c1ccc(-c2ccccc2)cc1)Cc1ccccc1 (racemic) | 2.38 | 90 | 215 | 31 | – | 30 | 45 | – | –
10 | COc1ccc2cc(C(C)(O)CCN(C)C)ccc2c1 (racemic) | 38.8 | > 258 | > 10000 | – | – | – | – | – | –
11 | COc1ccc2cc(C(C)CCN(C)Cc3ccccc3)ccc2c1 (racemic) | 2.31 | 73 | 169 | – | – | – | 32 | 171 | 841
12 | COc1ccc2cc(C(C)CCN3CCCCC3)ccc2c1 (racemic) | 1.29 | 131 | 169 | – | – | – | – | – | –
